Data from publication PMC8291583, “Design, synthesis, and evaluation of 3,7-substituted coumarin derivatives as multifunctional Alzheimer’s disease agents” (Journal of Enzyme Inhibition and Medicinal Chemistry, 2021).
Like-named read-outs stand apart in the source and are kept apart here.

Legend:
[1] = target: Electrophorus electricus AChE (Electrophorus electricus, UniProt O42275); test: biochemical
Method: (§1) Cholinesterase activity is determined using a modified colorimetric method first described by Ellman[40]. […] The stock was then further diluted by factors of ten to produce solutions of 1 mM, 100 µM, 10 µM, 1 µM, and 0.1 µM which corresponds to concentrations of 100 µM, 10 µM, 1 µM, 0.1 µM, and 0.01 µM in the final reaction mixture. The test concentrations were stored in the refrigerator until the day of the assay. Trisma HCl buffer (50 mM, adjusted to pH 8 with 2 N NaOH) was prepared as the buffer and used to prepare enzyme stock solution (22 U/ml for Electrophorus electricus AChE and 12 U/ml BuChE from equine serum), 15 mM acetylthiocholine iodide, 15 mM S-butyrylthiocholine iodide and 1.5 mM DTNB (Ellman’s reagent). The enzyme stock solution was stabilised with 1% bovine serum albumin and stored in aliquots at −80 °C. A clear, flat bottom 96 well plate was used to perform the experiments with each concentration performed in triplicate. Prior to the assay the background absorbance for each compound at the different test concentrations was measured and accounted for when reading the final absorbance. […] Following this, 30 µl of the substrate was added to each well simultaneously using a multi pipette. […] A one-sample t-test was performed on the data to test for statistical significance.

[2] = target: T1, BuChE from equine serum (Equus caballus, UniProt P81908); test: biochemical
T1 construct: 12 U/ml BuChE from equine serum; from tissue; host or cells: equine serum
T1 sequence (P81908 whole entry): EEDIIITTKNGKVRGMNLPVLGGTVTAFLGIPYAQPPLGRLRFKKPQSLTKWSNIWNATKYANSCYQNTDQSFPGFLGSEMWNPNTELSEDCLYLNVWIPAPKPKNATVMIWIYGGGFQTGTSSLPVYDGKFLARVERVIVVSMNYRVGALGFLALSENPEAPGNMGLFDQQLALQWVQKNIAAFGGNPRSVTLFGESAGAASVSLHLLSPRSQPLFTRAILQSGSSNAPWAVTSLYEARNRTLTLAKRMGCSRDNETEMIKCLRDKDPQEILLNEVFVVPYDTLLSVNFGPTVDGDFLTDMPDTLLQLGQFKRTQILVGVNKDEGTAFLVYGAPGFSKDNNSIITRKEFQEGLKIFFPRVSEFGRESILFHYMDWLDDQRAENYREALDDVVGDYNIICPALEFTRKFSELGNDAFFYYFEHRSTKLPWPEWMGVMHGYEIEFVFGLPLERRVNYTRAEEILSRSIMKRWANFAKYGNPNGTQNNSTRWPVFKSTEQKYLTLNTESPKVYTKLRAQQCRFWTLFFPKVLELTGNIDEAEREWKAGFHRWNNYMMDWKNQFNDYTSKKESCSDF
Method: as §1

[3] = test system: MPP+-compromised SH-SY5Y neuroblastoma cells; type: cell-based, human
Method: SH-SY5Y cells were seeded onto a 96-well plate in a growth medium at a density of 10,000 cells/well. Cells were pre-treated with test compounds at a concentration of 10 µM and thereafter 2000 µM MPP^+ following a 2-h incubation period. Afterwards, cells were incubated for 24 h and MTT colorimetric assay was used to measure cell viability relative to untreated control. To determine the data’s statistical significance, the One-way ANOVA Turkey’s multiple comparison test was conducted on all experimental replicates using GraphPad Prism® 8 (San Diego, USA).
The SH-SY5Y cells were pre-treated with 10 µM of the test compounds for 2 h followed by the addition of 2000 µM of MPP^+.

[4] = target: recombinant human MAO-B (Homo sapiens, UniProt P27338); test: MAO-B fluorometric assay (kynuramine); type: biochemical
Chain of recombinant human MAO-B (P27338 whole entry): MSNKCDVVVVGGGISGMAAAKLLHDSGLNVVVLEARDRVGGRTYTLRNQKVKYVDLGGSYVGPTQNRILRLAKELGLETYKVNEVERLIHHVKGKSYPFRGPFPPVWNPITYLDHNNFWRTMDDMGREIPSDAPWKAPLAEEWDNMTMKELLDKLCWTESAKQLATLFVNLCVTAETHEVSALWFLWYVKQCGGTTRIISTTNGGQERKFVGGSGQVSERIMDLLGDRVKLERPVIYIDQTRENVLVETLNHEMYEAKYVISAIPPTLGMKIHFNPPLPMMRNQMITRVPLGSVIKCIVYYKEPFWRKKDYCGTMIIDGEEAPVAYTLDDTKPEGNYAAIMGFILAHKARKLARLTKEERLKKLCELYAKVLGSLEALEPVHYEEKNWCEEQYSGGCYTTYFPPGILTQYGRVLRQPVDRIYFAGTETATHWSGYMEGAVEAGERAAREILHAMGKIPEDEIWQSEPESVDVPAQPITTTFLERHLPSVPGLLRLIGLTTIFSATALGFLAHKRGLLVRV
Method: . The stock was then further diluted by factors of ten to produce solutions of 1 mM, 100 µM, 10 µM, 1 µM, and 0.1 µM which would correspond to concentrations of 100 µM, 10 µM, 1 µM, 0.1 µM, and 0.01 µM in the final reaction mixture. A potassium phosphate buffer ([…] 100 mM, pH 7.4, 0.9% w/v NaCl) was prepared and refrigerated until further use. The enzyme stock solutions were prepared by dissolving 2.5 mg of enzyme in 33.33 ml of phosphate buffer to produce stock solutions of 0.075 mg/ml which were stored in aliquots at −80 °C until use. […]. The substrate was prepared by dissolving kynuramine in potassium buffer and was prepared as two separate concentrations; […]. The fresh substrate was prepared on the day of the assay. The assay was carried out in 2 ml Eppendorf vials. […] Following this, 25 µl of the enzyme stock were added to each vial in 10 s intervals and the vials were incubated at 37 °C for 10 min. After this time period 15 µl of kynuramine (750 µM for MAO-A and 500 µM for MAO-B) was added at 10 s intervals and further incubated for 20 min. To stop the reaction at the end of this time 150 hx00B5;l of 2 N NaOH was added and the mixture was shaken. Using a micropipette 80 hx00B5;l of the mixture was transferred to a well in a black 96 well plate. The plate was placed in the fluorescent plate reader and read at an excitation/emission wavelength of 310 nm/410 nm. Each assay was run in triplicate and the data were analysed with Graph Pad Prism 8 software (San Diego, USA).
The MAO inhibitory activity of the compounds was assessed using a fluorometric assay with recombinant human MAO-A and human MAO-B enzymes. […].

[5] = target: T2, recombinant human MAO-A (Homo sapiens, UniProt P21397); test: biochemical
T2 sequence (P21397 1-527): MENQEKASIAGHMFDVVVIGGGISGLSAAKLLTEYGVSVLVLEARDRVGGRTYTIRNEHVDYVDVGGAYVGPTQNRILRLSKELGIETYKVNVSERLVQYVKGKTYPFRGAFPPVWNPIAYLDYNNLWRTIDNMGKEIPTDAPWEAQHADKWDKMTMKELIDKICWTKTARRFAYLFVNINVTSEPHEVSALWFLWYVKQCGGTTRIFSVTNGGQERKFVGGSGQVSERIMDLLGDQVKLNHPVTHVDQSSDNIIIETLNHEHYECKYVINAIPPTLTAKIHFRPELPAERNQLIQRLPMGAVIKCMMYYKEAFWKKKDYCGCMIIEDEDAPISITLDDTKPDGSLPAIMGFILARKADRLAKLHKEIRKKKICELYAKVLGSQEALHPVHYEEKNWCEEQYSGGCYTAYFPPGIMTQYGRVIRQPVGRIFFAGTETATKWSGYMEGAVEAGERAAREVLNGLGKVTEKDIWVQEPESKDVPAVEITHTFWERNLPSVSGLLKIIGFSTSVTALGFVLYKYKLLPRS
Method: The stock was then further diluted by factors of ten to produce solutions of 1 mM, 100 µM, 10 µM, 1 µM, and 0.1 µM which would correspond to concentrations of 100 µM, 10 µM, 1 µM, 0.1 µM, and 0.01 µM in the final reaction mixture. A potassium phosphate buffer ([…] 100 mM, pH 7.4, 0.9% w/v NaCl) was prepared and refrigerated until further use. The enzyme stock solutions were prepared by dissolving 2.5 mg of enzyme in 33.33 ml of phosphate buffer to produce stock solutions of 0.075 mg/ml which were stored in aliquots at −80 °C until use. Once in the final reaction mixture, this enzyme solution will have a concentration of 0.0075 mg/ml. […] The fresh substrate was prepared on the day of the assay. The assay was carried out in 2 ml Eppendorf vials. […] Following this, 25 µl of the enzyme stock were added to each vial in 10 s intervals and the vials were incubated at 37 °C for 10 min. […] To stop the reaction at the end of this time 150 hx00B5;l of 2 N NaOH was added and the mixture was shaken. Using a micropipette 80 hx00B5;l of the mixture was transferred to a well in a black 96 well plate. The plate was placed in the fluorescent plate reader and read at an excitation/emission wavelength of 310 nm/410 nm. Each assay was run in triplicate and the data were analysed with Graph Pad Prism 8 software (San Diego, USA).
The MAO inhibitory activity of the compounds was assessed using a fluorometric assay with recombinant human MAO-A and human MAO-B enzymes.

[6] = Ellman method, 25 °C, pH 8, read-out: AChE IC50
[7] = Ellman method, 25 °C, pH 8, read-out: BuChE IC50
[8] = 10 µM compound, 2 h pre-treatment, 2000 µM MPP+, 24 h, SH-SY5Y
[9] = kynuramine 30 µM, 37 °C, read-out: MAO-B IC50
[10] = kynuramine 45 µM, 37 °C, read-out: MAO-A IC50

Chain of Electrophorus electricus AChE (O42275 24-633): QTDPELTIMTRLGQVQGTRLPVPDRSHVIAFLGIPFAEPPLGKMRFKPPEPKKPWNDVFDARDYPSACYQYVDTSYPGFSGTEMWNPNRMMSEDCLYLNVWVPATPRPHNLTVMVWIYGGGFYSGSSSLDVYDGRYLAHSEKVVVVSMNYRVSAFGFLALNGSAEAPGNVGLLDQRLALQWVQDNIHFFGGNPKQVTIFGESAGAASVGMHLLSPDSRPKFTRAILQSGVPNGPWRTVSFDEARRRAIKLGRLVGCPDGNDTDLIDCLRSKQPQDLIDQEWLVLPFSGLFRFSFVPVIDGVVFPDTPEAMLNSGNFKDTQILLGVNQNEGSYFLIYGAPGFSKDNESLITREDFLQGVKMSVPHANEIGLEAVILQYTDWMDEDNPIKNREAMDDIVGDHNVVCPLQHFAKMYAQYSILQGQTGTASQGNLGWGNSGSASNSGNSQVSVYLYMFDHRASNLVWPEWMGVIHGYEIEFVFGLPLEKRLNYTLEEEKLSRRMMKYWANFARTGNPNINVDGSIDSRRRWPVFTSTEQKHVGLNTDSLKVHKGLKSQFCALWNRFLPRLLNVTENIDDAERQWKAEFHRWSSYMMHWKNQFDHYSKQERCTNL

SMILES	IC50 [1, 6] [µM]	IC50 [2, 7] [µM]	MPP+ neuroprotection (difference in percentage cell viability vs MPP+ only treated cells) [3, 8] [%]	SI MAO-B (MAO-B selectivity index = IC50(MAO-A)/IC50(MAO-B)) [4]	IC50 [4, 9] [µM]	IC50 [5, 10] [µM]	IC50 ([1]; AChE IC50) [µM]	IC50 [2] [µM]	MPP+ neuroprotection (difference in percentage cell viability vs MPP+ only treated cells) [3] [%]	IC50 [4] [µM]	IC50 ([5]; MAO-A IC50) [µM]
CCN(CC)C(=O)Oc1ccc2cc(C)c(=O)oc2c1 [Compound 3, 3-methyl-2-oxo-2H-1-benzopyran-7-yl-diethylcarbamate]	> 100	> 100	15.59	5.67	0.498	2.82					
Cc1cc2ccc(O)cc2oc1=O [Compound 1, 7-hydroxy-3-methyl-2H-1-benzopyran-2-one]				2.04			> 100	20.2	26.24	16.4	33.4
Cc1cc2ccc(OCCc3ccccc3)cc2oc1=O [Compound 2, 3-methyl-7-(2-phenylethoxy)-2H-1-benzopyran-2-one]	> 100	> 100	24.85	47.7	0.014	0.658					
